Target: T1, hKv7.2/7.3 (Homo sapiens, UniProt O43525+O43526)
T1 construct: host or cells: HEK cells, tetracycline-inducible expression
Test: Kv7.2/7.3 Activation Assay, QPatch planar patch-clamp single concentration screen
Assay type: cell-based
Details: increase in current over baseline, Kv7.2/Kv7.3 co-expressing HEK cells, compound concentration 3 μM, steady-state current at end of 2 s pulse to −30 mV
Experimental: The ability of compounds to potentiate K-currents in Kv7.2/7.3 containing HEK cells was assessed using planar patch-clamp on the QPatch automated screening platform.
Cell Line: The hKv7.2/7.3 cell line was obtained from Chantest (Cleveland, OH 44128) cat. #CT6147. These HEK cells will express the Kv7.2/7.3 ion channels when induced.
Cell Culture: Cells were maintained in a media containing DMEM/F12; 50/50 (GIBCO cat. #11330), 10% Fetal Bovine Serum (FBS) (GIBCO cat. #26140), 100 units/mL Penicillin-Streptomycin (GIBCO cat. #15140), 0.005 mg/mL Blasticidin (INVIVOGEN cat. #ant-bl-1), 0.5 mg/mL Geneticin (GIBCO cat. #10131), 0.1 mg/mL Zeocin (GIBCO cat. #R25001). Cells used in the electrophysiology assay were maintained in a media without Blasticidin, Geneticin and Zeocin for 2 days and channel expression was induced by adding tetracycline (BIOLINE cat. #BIO-87030) at a final concentration of […]. Cells were grown in T-175 flask to ˜75% confluency. Currents were recorded 24 hours after channel induction.
Compound Plates: Test compounds were prepared by performing serial dilutions on a Biomek NX^P (BECKMAN COULTER). Final dilutions were made in external recording solution with a final DMSO concentration of 0.1% DMSO. For single concentration screens each plate had 10 μM retigabine as a positive control and 0.1% DMSO as a negative control.
Electrophysiology: On the day of the experiment cells were washed with Hank's Balanced Salt Solution (HBBS) (GIBCO cat. #14175) and harvested with Tryple (GIBCO cat. #12604). Cells were then centrifuged at 2000 rpm for 5 minutes and resuspended in CHO—S-SFM (GIBCO cat. #12052) at […]. Cells were stirred for 30 minutes before experiments were started. External recording solution contained (in mM): NaCl (145), KCl (4), CaCl2 (2), MgCl2 (1), HEPES (10) and Glucose (10); pH was adjusted to 7.4 with NaOH and the osmolarity was adjusted to 300-305 mOsM with sucrose if necessary. Internal solution contained (in mM): KCl (125), KF (10), EGTA (5), Na2ATP (5), MgCl2 (3.2), HEPES (5); pH was adjusted to 7.2 with KOH and the osmolarity was adjusted to 298-302 mOsM with sucrose.
Potassium channel activity was measured on the QPatch HTX (Sophion Bioscience) using QPlates with 48-wells/plate. Each cell was taken as an independent experiment and only one compound was tested per well. Potassium channel activity was elicited by holding at −80 mV and stepping to −30 mV for 2 s followed by a 100 ms pulse to −120 mV.
Single concentration screen: Baseline conditions were obtained by recording 5 sweeps in the external solution only, this was repeated for three applications of the external solution. The effect of test compounds on elicited current was then assessed by recording 5 sweeps in the presence of a 3 μM compound solution. The steady-state current at the end of the 2 s pulse to −30 mV was measured to determine the fold increase from baseline.

QPatch Kv7.2/7.3 Activity | Structure (SMILES)
+ (2.0-3.99 (+)) | CC(C)(C)CC(=O)Nc1nn2ccccc2c1C1CCC1 [Example 1, N-(3-cyclobutylpyrazolo[1,5-a]pyridin-2-yl)-3,3-dimethylbutanamide]
+ (2.0-3.99 (+)) | CC(C)(C)CC(=O)Nc1nn2ccc(C(F)(F)F)cc2c1C1CCC1 [Example 2, N-(3-cyclobutyl-5-(trifluoromethyl)pyrazolo [1,5-a]pyridin-2-yl)-3,3-dimethylbutanamide]
+/− (1.2-1.99-fold (+/−)) | O=C(CC(C(F)(F)F)C(F)(F)F)Nc1nn2ccccc2c1C1CCC1 [Example 4, N-(3-cyclobutylpyrazolo[1,5-a]pyridin-2-yl)-4,4,4-trifluoro-3-(trifluoromethyl) butanamide]
+/− (1.2-1.99-fold (+/−)) | O=C(CC(C(F)(F)F)C(F)(F)F)Nc1nn2ccc(C(F)(F)F)cc2c1C1CCC1 [Example 5, N-(3-cyclobutyl-5-(trifluoromethyl)pyrazolo [1,5-a]pyridin-2-yl)-4,4,4-trifluoro-3-(trifluoromethyl) butanamide]
+ (2.0-3.99 (+)) | CC(C)[C@H](C)C(=O)Nc1nn2ccccc2c1C1CCC1 [Example 6, (S)-N-(3-cyclobutylpyrazolo[1,5-a]pyridin-2-yl)-2,3-dimethylbutanamide]
+ (2.0-3.99 (+)) | CC(C)[C@H](C)C(=O)Nc1nn2ccc(C(F)(F)F)cc2c1C1CCC1 [Example 7, (S)-N-(3-cyclobutyl-5-(trifluoromethyl)pyrazolo [1,5-a]pyridin-2-yl)-2,3-dimethylbutanamide]
+ (2.0-3.99 (+)) | CC(C)[C@H](C)C(=O)Nc1nn2ccc(C#N)cc2c1C1CCC1 [Example 8, (S)-N-(5-cyano-3-cyclobutylpyrazolo[1,5-a]pyridin-2-yl)-2,3-dimethylbutanamide]
− (<1.2-fold (−)) | CC(C)(O)CC(=O)Nc1nn2ccccc2c1C1CCC1 [Example 9, N-(3-cyclobutylpyrazolo[1,5-a]pyridin-2-yl)-3-hydroxy-3-methylbutanamide]
+ (2.0-3.99 (+)) | CC(C)(O)CC(=O)Nc1nn2ccc(C(F)(F)F)cc2c1C1CCC1 [Example 10, N-(3-cyclobutyl-5-(trifluoromethyl)pyrazolo [1,5-a]pyridin-2-yl)-3-hydroxy-3-methylbutanamide]
+/− (1.2-1.99-fold (+/−)) | CC(C)(O)CC(=O)Nc1nn2ccc(C#N)cc2c1C1CCC1 [Example 11, N-(5-cyano-3-cyclobutylpyrazolo[1,5-a]pyridin-2-yl)-3-hydroxy-3-methylbutanamide]
+ (2.0-3.99 (+)) | CC(C)(O)CC(=O)Nc1nn2ccc(Br)cc2c1C1CCC1 [Example 12, N-(5-bromo-3-cyclobutylpyrazolo[1,5-a]pyridin-2-yl)-3-hydroxy-3-methylbutanamide]
+ (2.0-3.99 (+)) | CC(C)(O)CC(=O)Nc1nn2ccc(C(F)(F)F)cc2c1-c1ccccc1 [Example 13, 3-hydroxy-3-methyl-N-(3-phenyl-5-(trifluoromethyl)pyrazolo [1,5-a]pyridin-2-yl)butanamide]
+/− (1.2-1.99-fold (+/−)) | COc1ccn2nc(NC(=O)CC(C)(C)O)c(C3CCC3)c2c1 [Example 16, N-(3-cyclobutyl-5-methoxypyrazolo[1,5-a]pyridin-2-yl)-3-hydroxy-3-methylbutanamide]
+ (2.0-3.99 (+)) | CC(C)(O)CC(=O)Nc1nn2ccc(C(F)(F)F)cc2c1-c1ccc(Cl)cc1 [Example 17, N-(3-(4-chlorophenyl)-5-(trifluoromethyl)pyrazolo [1,5-a]pyridin-2-yl)-3-hydroxy-3-methylbutanamide]
+ (2.0-3.99 (+)) | Cc1ccc(-c2c(NC(=O)CC(C)(C)O)nn3ccc(C(F)(F)F)cc23)cc1 [Example 18, 3-hydroxy-3-methyl-N-(3-(p-tolyl)-5-(trifluoromethyl)pyrazolo [1,5-a]pyridin-2-yl)butanamide]
+ (2.0-3.99 (+)) | CC(C)(O)CC(=O)Nc1nn2c(Br)cccc2c1C1CCC1 [Example 19, N-(7-bromo-3-cyclobutylpyrazolo[1,5-a]pyridin-2-yl)-3-hydroxy-3-methylbutanamide]
+ (2.0-3.99 (+)) | O=C(CC1(O)CCCC1)Nc1nn2ccc(Cl)cc2c1C1CCC1 [Example 20, N-(5-chloro-3-cyclobutylpyrazolo[1,5-a]pyridin-2-yl)-2-(1-hydroxycyclopentyl) acetamide]
+ (2.0-3.99 (+)) | O=C(CC1(O)CCCC1)Nc1nn2ccc(C(F)(F)F)cc2c1C1CCC1 [Example 21, N-(3-cyclobutyl-5-(trifluoromethyl)pyrazolo [1,5-a]pyridin-2-yl)-2-(1-hydroxycyclopentyl) acetamide]
+ (2.0-3.99 (+)) | O=C(CC1(O)CCC1)Nc1nn2ccc(C(F)(F)F)cc2c1-c1ccc(F)cc1 [Example 22, N-(3-(4-fluorophenyl)-5-(trifluoromethyl)pyrazolo [1,5-a]pyridin-2-yl)-2-(1-hydroxycyclobutyl) acetamide]
+ (2.0-3.99 (+)) | CC(O)(CC(=O)Nc1nn2ccc(C(F)(F)F)cc2c1C1CCC1)C1CCC1 (centres unmarked) [Example 23, 3-cyclobutyl-N-(3-cyclobutyl-5-(trifluoromethyl)pyrazolo [1,5-a]pyridin-2-yl)-3-hydroxybutanamide]
+ (2.0-3.99 (+)) | COc1ccn2nc(NC(=O)CC(C)(O)C3CCCC3)c(C3CCC3)c2c1 (centres unmarked) [Example 26, N-(3-cyclobutyl-5-methoxypyrazolo[1,5-a]pyridin-2-yl)-3-cyclopentyl-3-hydroxybutanamide]
+ (2.0-3.99 (+)) | CC(O)(CC(=O)Nc1nn2ccc(C(F)(F)F)cc2c1C1CCC1)c1ccccc1 (centres unmarked) [Example 27, N-(3-cyclobutyl-5-(trifluoromethyl)pyrazolo [1,5-a]pyridin-2-yl)-3-hydroxy-3-phenylbutanamide]
+/− (1.2-1.99-fold (+/−)) | CC(O)(CC(=O)Nc1nn2ccc(C#N)cc2c1C1CCC1)c1ccccc1 (centres unmarked) [Example 28, N-(5-cyano-3-cyclobutylpyrazolo[1,5-a]pyridin-2-yl)-3-hydroxy-3-phenylbutanamide]
++ (4.0-5.99 (++)) | C[C@](O)(CC(=O)Nc1nn2ccc(C(F)(F)F)cc2c1C1CCC1)c1ccccc1 [Example 29, (S)-N-(3-cyclobutyl-5-(trifluoromethyl)pyrazolo [1,5-a]pyridin-2-yl)-3-hydroxy-3-phenylbutanamide]
+ (2.0-3.99 (+)) | C[C@](O)(CC(=O)Nc1nn2ccc(C#N)cc2c1C1CCC1)c1ccccc1 [Example 30, (S)-N-(5-cyano-3-cyclobutylpyrazolo[1,5-a]pyridin-2-yl)-3-hydroxy-3-phenylbutanamide]
+ (2.0-3.99 (+)) | C[C@](O)(CC(=O)Nc1nn2ccc(Cl)cc2c1C1CCC1)c1ccccc1 [Example 31, (S)-N-(5-chloro-3-cyclobutylpyrazolo[1,5-a]pyridin-2-yl)-3-hydroxy-3-phenylbutanamide]
+ (2.0-3.99 (+)) | C[C@](O)(CC(=O)Nc1nn2ccc(C(F)(F)F)cc2c1-c1ccc(F)cc1)c1ccccc1 [Example 32, (S)-N-(3-(4-fluorophenyl)-5-(trifluoromethyl)pyrazolo [1,5-a]pyridin-2-yl)-3-hydroxy-3-phenylbutanamide]
+ (2.0-3.99 (+)) | C[C@](O)(CC(=O)Nc1nn2c(Br)cccc2c1C1CCC1)c1ccccc1 [Example 33, (S)-N-(7-bromo-3-cyclobutylpyrazolo[1,5-a]pyridin-2-yl)-3-hydroxy-3-phenylbutanamide]
− (<1.2-fold (−)) | C[C@@](O)(CC(=O)Nc1nn2ccc(C(F)(F)F)cc2c1C1CCC1)c1ccccc1 [Example 34, (R)-N-(3-cyclobutyl-5-(trifluoromethyl)pyrazolo [1,5-a]pyridin-2-yl)-3-hydroxy-3-phenylbutanamide]

From patent US20250066351A1, “PYRAZOLO[1,5-A]PYRIDIN-2,3-YL AMIDES AS KV7 CHANNEL ACTIVATORS” (Biohaven Therapeutics Ltd., priority 2022, published 2025)
